The supplement of paper PMC10307832

How the values were obtained:
Assay in all cases: relative viability (nuclei count vs DMSO), 5 days (fraction); higher = more cells survive
NCI-H1666 = system: NCI-H1666
How it was run: (§1)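 Relative viability is defined as nuclei in treated wells over nuclei in vehicle wells. Duplicate plates were run and medians reported. Lung cancer cell lines in 1536-well plates were dosed by pin tool one day after seeding, with one drug or with a fixed anchor-drug dose plus five library-drug doses (not always all listed) in √10 steps, and nuclei were counted after 5 days.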

NCI-H3122 = system: NCI-H3122
How it was run: as §1

NCI-H596 = system: NCI-H596
How it was run: as §1

HOP-62 = system: HOP-62
How it was run: as §1

NCI-H1355 = system: NCI-H1355
How it was run: as §1

BEN = system: BEN
How it was run: as §1

NCI-H647 = system: NCI-H647
How it was run: as §1

LU99A = system: LU99A
How it was run: as §1

ABC-1 = system: ABC-1
How it was run: as §1

PC-14 = system: PC-14
How it was run: as §1

NCI-H727 = system: NCI-H727
How it was run: as §1

NCI-H1792 = system: NCI-H1792
How it was run: as §1

NCI-H358 = system: NCI-H358
How it was run: as §1

EPLC-272H = system: EPLC-272H
How it was run: as §1

NCI-H2405 = system: NCI-H2405
How it was run: as §1

HCC-827 = system: HCC-827
How it was run: as §1

NCI-H1975 = system: NCI-H1975
How it was run: as §1

NCI-H838 = system: NCI-H838
How it was run: as §1

NCI-H2170 = system: NCI-H2170
How it was run: as §1

NCI-H322M = system: NCI-H322M
How it was run: as §1

NCI-H23 = system: NCI-H23
How it was run: as §1

O=C(O)CCCCC(CCSCc1ccccc1)SCc1ccccc1 (centres undefined) [CPI-613] + NC(=O)Nc1cc(-c2cccc(F)c2)sc1C(=O)N[C@H]1CCCNC1 [AZD7762] (partner 0.2 µM)
relative viability (NCI-H1666; first compound 5 µM): 0.911
relative viability (NCI-H1666; first compound 15.81 µM): 0.821
relative viability (NCI-H1666; first compound 50 µM): 0.761
relative viability (NCI-H1666; first compound 158.11 µM): 0.376
relative viability (NCI-H1666; first compound 500 µM): 0.553
relative viability (NCI-H3122; first compound 5 µM): 0.989
relative viability (NCI-H3122; first compound 15.81 µM): 0.977
relative viability (NCI-H3122; first compound 50 µM): 1.01
relative viability (NCI-H3122; first compound 158.11 µM): 0.973
relative viability (NCI-H3122; first compound 500 µM): 0.842
relative viability (NCI-H596; first compound 5 µM): 1.16
relative viability (NCI-H596; first compound 15.81 µM): 0.939
relative viability (NCI-H596; first compound 50 µM): 1.11
relative viability (NCI-H596; first compound 158.11 µM): 0.818
relative viability (NCI-H596; first compound 500 µM): 0.0374
relative viability (HOP-62; first compound 5 µM): 0.703
relative viability (HOP-62; first compound 15.81 µM): 0.398
relative viability (HOP-62; first compound 50 µM): 0.649
relative viability (HOP-62; first compound 158.11 µM): 0.235
relative viability (HOP-62; first compound 500 µM): 0.216
relative viability (NCI-H1355; first compound 5 µM): 0.721
relative viability (NCI-H1355; first compound 15.81 µM): 0.741
relative viability (NCI-H1355; first compound 50 µM): 0.772
relative viability (NCI-H1355; first compound 158.11 µM): 0.52
relative viability (NCI-H1355; first compound 500 µM): 0.185
relative viability (BEN; first compound 5 µM): 0.653
relative viability (BEN; first compound 15.81 µM): 0.485
relative viability (BEN; first compound 50 µM): 0.697
relative viability (BEN; first compound 158.11 µM): 0.672
relative viability (BEN; first compound 500 µM): 0.526
relative viability (NCI-H647; first compound 5 µM): 0.502
relative viability (NCI-H647; first compound 15.81 µM): 0.32
relative viability (NCI-H647; first compound 50 µM): 0.406
relative viability (NCI-H647; first compound 158.11 µM): 0.282
relative viability (NCI-H647; first compound 500 µM): 0.343
relative viability (LU99A; first compound 5 µM): 0.338
relative viability (LU99A; first compound 15.81 µM): 0.326
relative viability (LU99A; first compound 50 µM): 0.322
relative viability (LU99A; first compound 158.11 µM): 0.335
relative viability (LU99A; first compound 500 µM): 0.0775
relative viability (ABC-1; first compound 5 µM): 1.18
relative viability (ABC-1; first compound 15.81 µM): 0.696
relative viability (ABC-1; first compound 158.11 µM): 0.471
relative viability (ABC-1; first compound 500 µM): 0.71
relative viability (PC-14; first compound 5 µM): 0.349
relative viability (PC-14; first compound 15.81 µM): 0.252
relative viability (PC-14; first compound 50 µM): 0.296
relative viability (PC-14; first compound 158.11 µM): 0.256
relative viability (PC-14; first compound 500 µM): 0.16
relative viability (NCI-H727; first compound 5 µM): 0.617
relative viability (NCI-H727; first compound 15.81 µM): 0.547
relative viability (NCI-H727; first compound 50 µM): 0.669
relative viability (NCI-H727; first compound 158.11 µM): 0.555
relative viability (NCI-H727; first compound 500 µM): 0.561
relative viability (NCI-H1792; first compound 5 µM): 0.691
relative viability (NCI-H1792; first compound 15.81 µM): 0.616
relative viability (NCI-H1792; first compound 50 µM): 0.57
relative viability (NCI-H1792; first compound 158.11 µM): 0.135
relative viability (NCI-H1792; first compound 500 µM): 0.047
relative viability (NCI-H358; first compound 5 µM): 0.569
relative viability (NCI-H358; first compound 15.81 µM): 0.451
relative viability (NCI-H358; first compound 50 µM): 0.474
relative viability (NCI-H358; first compound 158.11 µM): 0.438
relative viability (NCI-H358; first compound 500 µM): 0.56
relative viability (EPLC-272H; first compound 5 µM): 0.209
relative viability (EPLC-272H; first compound 15.81 µM): 0.302
relative viability (EPLC-272H; first compound 50 µM): 0.189
relative viability (EPLC-272H; first compound 158.11 µM): 0.143
relative viability (EPLC-272H; first compound 500 µM): 0.3
relative viability (NCI-H2405; first compound 5 µM): 0.755
relative viability (NCI-H2405; first compound 15.81 µM): 0.63
relative viability (NCI-H2405; first compound 50 µM): 0.736
relative viability (NCI-H2405; first compound 158.11 µM): 0.557
relative viability (NCI-H2405; first compound 500 µM): 0.235
relative viability (HCC-827; first compound 5 µM): 0.217
relative viability (HCC-827; first compound 15.81 µM): 0.181
relative viability (HCC-827; first compound 50 µM): 0.201
relative viability (HCC-827; first compound 158.11 µM): 0.179
relative viability (HCC-827; first compound 500 µM): 0.127
relative viability (NCI-H1975; first compound 5 µM): 0.734
relative viability (NCI-H1975; first compound 15.81 µM): 0.682
relative viability (NCI-H1975; first compound 50 µM): 0.581
relative viability (NCI-H1975; first compound 158.11 µM): 0.666
relative viability (NCI-H1975; first compound 500 µM): 0.677
relative viability (NCI-H838; first compound 5 µM): 0.977
relative viability (NCI-H838; first compound 15.81 µM): 0.935
relative viability (NCI-H838; first compound 50 µM): 0.893
relative viability (NCI-H838; first compound 158.11 µM): 0.844
relative viability (NCI-H838; first compound 500 µM): 0.912
relative viability (NCI-H2170; first compound 5 µM): 0.878
relative viability (NCI-H2170; first compound 15.81 µM): 0.826
relative viability (NCI-H2170; first compound 50 µM): 0.865
relative viability (NCI-H2170; first compound 158.11 µM): 0.607
relative viability (NCI-H2170; first compound 500 µM): 0.231
relative viability (NCI-H322M; first compound 5 µM): 0.547
relative viability (NCI-H322M; first compound 15.81 µM): 0.508
relative viability (NCI-H322M; first compound 50 µM): 0.606
relative viability (NCI-H322M; first compound 158.11 µM): 0.638
relative viability (NCI-H322M; first compound 500 µM): 0.269
relative viability (NCI-H23; first compound 5 µM): 0.212
relative viability (NCI-H23; first compound 15.81 µM): 0.274
relative viability (NCI-H23; first compound 50 µM): 0.218
relative viability (NCI-H23; first compound 158.11 µM): 0.151
relative viability (NCI-H23; first compound 500 µM): 0.0026
